US20230181614A1, “ADMINISTRATION OF CITICOLINE TO IMPROVE COGNITIVE PERFORMANCE, ATTENTIONAL PERFORMANCE, AND MOTOR FUNCTION” (KYOWA HAKKO BIO CO., LTD., priority 2014, published 2023)

Key:
[1] = tested on: Healthy subjects, ages 13-18; assay: Children's Depression Rating Scale (CDRS); format: in vivo, human; details: for CDRS Score, Mean: V3-V1
From the text: Study participants were screened by telephone prior to study enrollment. Healthy subjects, ages 13-18, with no significant medical conditions and no history of co-morbid psychiatric disorder, current Axis I or II diagnosis, or previous participation in a pharmacotherapeutic trial, were selected. Use of any psychotropic medication or any previous head injury resulting in loss of consciousness for 5 or more minutes were used as exclusion criteria. While no participant met criteria for a neuropsychiatric disorder at enrollment, clinical assessments were still completed throughout the study to evaluate changes in mood state. In addition, self-reports of sleep habits, lifestyle, and exercise routines were also administered at baseline as well as at each study visit to assess changes in health habits during study participation. Following the completion of Visit 1 assessment, participants were given their 28-day supply of citicoline (250 mg or 500 mg) or placebo, which was randomly assigned. They were instructed to take one capsule a day every day for the next 28 days. Visit 2 occurred fourteen days after Visit 1. At Visit 2, the remaining study pills were counted and participant dosage calendars were checked to ensure compliance with the protocol. Additional neuropsychological measures and clinical assessments were administered during this visit. Participants returned for Visit 3 fourteen days later, on the 28th day of their study participation. The pill bottle and the dosage calendar were collected from each participant. Urine and blood were again obtained. Participants also participated in similar clinical and neuropsychological testing and clinical measures that were given during visit 1. The CDRS is an investigator-administered scale that are widely used as observational measures of depressive symptoms in children. The scale was administered at each of the three visits to assess presence or absence of depressive symptoms.

[2] = tested on: Healthy subjects, ages 13-18; assay: Wisconsin Card Sorting Task (WCST); format: in vivo, human; details: Visit 3
From the text: Study participants were screened by telephone prior to study enrollment. Healthy subjects, ages 13-18, with no significant medical conditions and no history of co-morbid psychiatric disorder, current Axis I or II diagnosis, or previous participation in a pharmacotherapeutic trial, were selected. Use of any psychotropic medication or any previous head injury resulting in loss of consciousness for 5 or more minutes were used as exclusion criteria. While no participant met criteria for a neuropsychiatric disorder at enrollment, clinical assessments were still completed throughout the study to evaluate changes in mood state. In addition, self-reports of sleep habits, lifestyle, and exercise routines were also administered at baseline as well as at each study visit to assess changes in health habits during study participation. Following the completion of Visit 1 assessment, participants were given their 28-day supply of citicoline (250 mg or 500 mg) or placebo, which was randomly assigned. They were instructed to take one capsule a day every day for the next 28 days. Visit 2 occurred fourteen days after Visit 1. At Visit 2, the remaining study pills were counted and participant dosage calendars were checked to ensure compliance with the protocol. Additional neuropsychological measures and clinical assessments were administered during this visit. Participants returned for Visit 3 fourteen days later, on the 28th day of their study participation. The pill bottle and the dosage calendar were collected from each participant. Urine and blood were again obtained. Participants also participated in similar clinical and neuropsychological testing and clinical measures that were given during visit 1. The WCST assess a person’s ability to form abstract concepts, utilize feedback, and to shift and maintain set. […] The WCST involves 4 stimulus cards that vary in color, geometric form, and number. Without knowing the criterion, participants are asked to match cards from a deck to the stimulus cards. After the participant places each card, they are told whether they are correct or incorrect and should change the element they are matching based on this feedback. […] The WCST was given on the third visit of the study.

C[N+](C)(C)CCOP(=O)(O)OP(=O)([O-])OC[C@H]1O[C@@H](n2ccc(N)nc2=O)[C@H](O)[C@@H]1O [citicoline, Cytidine 5′-diphosphocholine]
CDRS, Mean ([1]; 250 mg/day, V1 (baseline)): 16.89 | CDRS, Mean ([1]; 250 mg/day, V3 (day 28)): 16.22 | CDRS Score, Mean ([1]; 250 mg/day): -0.67 | CDRS, Mean ([1]; 500 mg/day, V1 (baseline)): 16.33 | CDRS, Mean ([1]; 500 mg/day, V3 (day 28)): 16.08 | CDRS Score, Mean ([1]; 500 mg/day): -0.25 | WCST V3 Number of Categories Achieved (Mean) ([2]; 250 mg/day group): 5.69 | WCST V3 Number of Trials to Complete Category (Mean) ([2]; 250 mg/day group): 71.15 | WCST V3 Number of Trials to Get into Category (Mean) ([2]; 250 mg/day group): 15.19 | WCST V3 Total Cards Used (Mean) ([2]; 250 mg/day group): 90.88 | WCST V3 Total Errors (Mean) ([2]; 250 mg/day group): 19.73 | WCST V3 Total Perseverative Errors (Mean) ([2]; 250 mg/day group): 8.54 | WCST V3 Number of Categories Achieved (Mean) ([2]; 500 mg/day group): 5.87 | WCST V3 Number of Trials to Complete Category (Mean) ([2]; 500 mg/day group): 70.57 | WCST V3 Number of Trials to Get into Category (Mean) ([2]; 500 mg/day group): 13.78 | WCST V3 Total Cards Used (Mean) ([2]; 500 mg/day group): 89.57 | WCST V3 Total Errors (Mean) ([2]; 500 mg/day group): 19.00 | WCST V3 Total Perseverative Errors (Mean) ([2]; 500 mg/day group): 9.13
